From ChEMBL document CHEMBL5291721, “A preclinical secondary pharmacology resource illuminates target-adverse drug reaction associations of marketed drugs” (Nat Commun, 2023)
“And” between values parts separate entries of the source, which are not always exact repeats. Equal entries are not always repeated.

Key:
[1] = biological target: Melanocortin receptor 3 (Homo sapiens, UniProt P41968)
[2] = biological target: T1, 5-hydroxytryptamine receptor 2C (Homo sapiens, UniProt P28335)
T1 sequence (P28335 whole entry): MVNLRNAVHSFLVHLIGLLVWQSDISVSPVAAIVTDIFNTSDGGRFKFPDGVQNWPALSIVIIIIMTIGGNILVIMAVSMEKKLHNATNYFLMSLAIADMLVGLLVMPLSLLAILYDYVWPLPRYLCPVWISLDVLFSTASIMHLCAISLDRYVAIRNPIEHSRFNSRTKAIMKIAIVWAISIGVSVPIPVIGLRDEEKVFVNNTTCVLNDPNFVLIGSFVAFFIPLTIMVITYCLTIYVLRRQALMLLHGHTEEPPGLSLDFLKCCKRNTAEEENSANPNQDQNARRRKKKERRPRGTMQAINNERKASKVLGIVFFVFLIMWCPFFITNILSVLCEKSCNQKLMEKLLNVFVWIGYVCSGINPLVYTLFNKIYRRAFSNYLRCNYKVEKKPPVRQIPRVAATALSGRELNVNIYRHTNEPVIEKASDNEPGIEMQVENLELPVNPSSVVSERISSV

[3] = biological target: Histamine H3 receptor (Homo sapiens, UniProt Q9Y5N1)
[4] = biological target: T2, Estrogen receptor (Homo sapiens, UniProt P03372)
T2 sequence (P03372 whole entry): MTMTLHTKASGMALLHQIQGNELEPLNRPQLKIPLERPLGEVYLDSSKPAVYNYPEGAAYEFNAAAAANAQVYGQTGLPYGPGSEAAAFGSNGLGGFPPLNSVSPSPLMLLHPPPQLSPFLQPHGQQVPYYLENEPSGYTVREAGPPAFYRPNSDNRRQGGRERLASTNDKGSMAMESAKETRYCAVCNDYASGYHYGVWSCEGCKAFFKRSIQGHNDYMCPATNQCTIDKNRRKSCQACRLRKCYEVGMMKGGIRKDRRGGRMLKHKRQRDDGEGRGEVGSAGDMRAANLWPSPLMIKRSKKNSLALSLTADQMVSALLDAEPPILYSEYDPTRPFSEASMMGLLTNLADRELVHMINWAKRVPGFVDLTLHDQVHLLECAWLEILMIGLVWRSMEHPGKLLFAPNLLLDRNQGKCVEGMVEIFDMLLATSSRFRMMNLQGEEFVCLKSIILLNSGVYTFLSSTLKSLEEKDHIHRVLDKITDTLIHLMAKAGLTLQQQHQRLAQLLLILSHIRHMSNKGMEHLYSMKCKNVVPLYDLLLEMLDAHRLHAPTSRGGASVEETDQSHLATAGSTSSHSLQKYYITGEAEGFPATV

[5] = biological target: Adenosine receptor A2a (Homo sapiens, UniProt P29274)
[6] = biological target: Gamma-aminobutyric acid receptor subunit alpha-1 (Rattus norvegicus, UniProt P62813); type: functional
[7] = biological target: Glutamate receptor ionotropic, NMDA 1 (Rattus norvegicus, UniProt P35439)
[8] = biological target: cGMP-inhibited 3',5'-cyclic phosphodiesterase 3A (Homo sapiens, UniProt Q14432); type: functional
[9] = biological target: Delta-type opioid receptor (Homo sapiens, UniProt P41143)
[10] = biological target: Histamine H1 receptor (Homo sapiens, UniProt P35367)
[11] = biological target: 3',5'-cyclic-AMP phosphodiesterase 4D (Homo sapiens, UniProt Q08499); type: functional
[12] = biological target: T3, 5-hydroxytryptamine receptor 1A (Homo sapiens, UniProt P08908); type: functional, cell-based
T3 sequence (P08908 whole entry): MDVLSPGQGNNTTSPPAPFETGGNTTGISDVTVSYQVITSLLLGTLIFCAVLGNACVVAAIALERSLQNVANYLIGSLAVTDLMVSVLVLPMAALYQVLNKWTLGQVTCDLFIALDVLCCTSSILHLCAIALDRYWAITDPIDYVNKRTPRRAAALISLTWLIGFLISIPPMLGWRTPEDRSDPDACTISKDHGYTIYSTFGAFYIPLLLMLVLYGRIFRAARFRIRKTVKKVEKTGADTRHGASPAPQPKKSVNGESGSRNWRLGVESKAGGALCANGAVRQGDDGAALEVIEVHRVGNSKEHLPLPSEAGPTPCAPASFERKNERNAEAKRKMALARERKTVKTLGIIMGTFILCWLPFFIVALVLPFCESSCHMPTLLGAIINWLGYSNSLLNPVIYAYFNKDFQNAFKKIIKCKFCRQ

[13] = biological target: T4, Alpha-2B adrenergic receptor (Homo sapiens, UniProt P18089)
T4 sequence (P18089 whole entry): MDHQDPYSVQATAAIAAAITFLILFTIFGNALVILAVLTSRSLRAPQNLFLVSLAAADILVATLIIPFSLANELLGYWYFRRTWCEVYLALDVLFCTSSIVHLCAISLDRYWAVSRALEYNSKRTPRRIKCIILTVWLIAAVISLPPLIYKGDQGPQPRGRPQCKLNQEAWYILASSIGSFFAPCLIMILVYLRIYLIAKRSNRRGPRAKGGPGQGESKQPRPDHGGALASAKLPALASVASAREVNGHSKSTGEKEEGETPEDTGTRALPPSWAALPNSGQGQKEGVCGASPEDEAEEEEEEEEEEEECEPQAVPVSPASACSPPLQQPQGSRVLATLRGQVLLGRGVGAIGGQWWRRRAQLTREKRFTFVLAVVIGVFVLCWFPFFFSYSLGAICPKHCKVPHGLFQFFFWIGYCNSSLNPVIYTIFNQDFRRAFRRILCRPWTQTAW
Also: assay procedure not described here.

Chain of Melanocortin receptor 3 (P41968 whole entry): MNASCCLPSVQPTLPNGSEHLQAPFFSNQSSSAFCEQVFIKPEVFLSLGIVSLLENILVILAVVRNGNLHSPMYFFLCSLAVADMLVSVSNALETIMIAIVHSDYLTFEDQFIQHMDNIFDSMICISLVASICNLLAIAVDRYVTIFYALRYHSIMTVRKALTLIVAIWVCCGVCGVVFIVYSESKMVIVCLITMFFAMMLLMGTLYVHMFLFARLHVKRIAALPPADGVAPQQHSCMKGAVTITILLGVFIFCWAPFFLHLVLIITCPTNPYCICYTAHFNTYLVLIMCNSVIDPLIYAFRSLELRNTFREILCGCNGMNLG
Chain of cGMP-inhibited 3',5'-cyclic phosphodiesterase 3A (Q14432 whole entry): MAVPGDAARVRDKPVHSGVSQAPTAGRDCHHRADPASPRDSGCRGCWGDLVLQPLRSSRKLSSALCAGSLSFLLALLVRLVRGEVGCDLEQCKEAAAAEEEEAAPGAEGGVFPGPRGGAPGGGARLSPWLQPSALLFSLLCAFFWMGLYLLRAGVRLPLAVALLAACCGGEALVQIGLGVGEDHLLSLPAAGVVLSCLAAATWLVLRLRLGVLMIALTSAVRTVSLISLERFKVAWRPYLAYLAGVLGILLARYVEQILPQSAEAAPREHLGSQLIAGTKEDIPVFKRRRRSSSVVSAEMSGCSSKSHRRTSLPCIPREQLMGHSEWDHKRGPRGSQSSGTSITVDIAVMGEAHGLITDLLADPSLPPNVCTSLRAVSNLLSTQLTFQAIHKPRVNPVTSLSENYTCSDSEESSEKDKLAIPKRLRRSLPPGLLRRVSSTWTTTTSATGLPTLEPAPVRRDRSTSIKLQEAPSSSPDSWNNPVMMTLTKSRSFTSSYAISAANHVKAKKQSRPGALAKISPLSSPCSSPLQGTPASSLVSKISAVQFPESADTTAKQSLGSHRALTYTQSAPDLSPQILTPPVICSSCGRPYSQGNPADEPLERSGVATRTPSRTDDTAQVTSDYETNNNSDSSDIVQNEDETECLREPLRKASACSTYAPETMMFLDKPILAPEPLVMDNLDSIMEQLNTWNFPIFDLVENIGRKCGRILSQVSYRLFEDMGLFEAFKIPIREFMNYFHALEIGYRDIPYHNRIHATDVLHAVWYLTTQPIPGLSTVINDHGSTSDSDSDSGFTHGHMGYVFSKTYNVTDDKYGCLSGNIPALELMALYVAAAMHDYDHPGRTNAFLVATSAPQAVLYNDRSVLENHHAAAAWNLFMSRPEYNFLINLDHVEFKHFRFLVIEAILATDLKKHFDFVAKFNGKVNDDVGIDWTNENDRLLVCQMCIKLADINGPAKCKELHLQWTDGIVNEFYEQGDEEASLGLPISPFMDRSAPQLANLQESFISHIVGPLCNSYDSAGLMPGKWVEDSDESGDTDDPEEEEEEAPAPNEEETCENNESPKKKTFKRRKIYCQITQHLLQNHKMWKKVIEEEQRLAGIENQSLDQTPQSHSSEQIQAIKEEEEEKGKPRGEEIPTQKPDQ
Chain of Gamma-aminobutyric acid receptor subunit alpha-1 (P62813 whole entry): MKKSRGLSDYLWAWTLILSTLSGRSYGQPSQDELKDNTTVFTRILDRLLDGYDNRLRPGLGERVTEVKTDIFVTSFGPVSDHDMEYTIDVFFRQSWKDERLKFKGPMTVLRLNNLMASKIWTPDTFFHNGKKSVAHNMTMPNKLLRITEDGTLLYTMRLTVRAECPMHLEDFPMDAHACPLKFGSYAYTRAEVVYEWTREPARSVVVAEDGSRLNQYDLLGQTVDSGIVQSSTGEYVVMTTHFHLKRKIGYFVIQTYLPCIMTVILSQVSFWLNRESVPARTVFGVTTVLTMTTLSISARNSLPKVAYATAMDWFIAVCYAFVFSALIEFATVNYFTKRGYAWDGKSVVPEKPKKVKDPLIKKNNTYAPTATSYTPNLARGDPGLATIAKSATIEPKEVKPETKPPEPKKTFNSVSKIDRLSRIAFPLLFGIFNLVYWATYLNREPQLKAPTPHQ
Chain of Histamine H3 receptor (Q9Y5N1 whole entry): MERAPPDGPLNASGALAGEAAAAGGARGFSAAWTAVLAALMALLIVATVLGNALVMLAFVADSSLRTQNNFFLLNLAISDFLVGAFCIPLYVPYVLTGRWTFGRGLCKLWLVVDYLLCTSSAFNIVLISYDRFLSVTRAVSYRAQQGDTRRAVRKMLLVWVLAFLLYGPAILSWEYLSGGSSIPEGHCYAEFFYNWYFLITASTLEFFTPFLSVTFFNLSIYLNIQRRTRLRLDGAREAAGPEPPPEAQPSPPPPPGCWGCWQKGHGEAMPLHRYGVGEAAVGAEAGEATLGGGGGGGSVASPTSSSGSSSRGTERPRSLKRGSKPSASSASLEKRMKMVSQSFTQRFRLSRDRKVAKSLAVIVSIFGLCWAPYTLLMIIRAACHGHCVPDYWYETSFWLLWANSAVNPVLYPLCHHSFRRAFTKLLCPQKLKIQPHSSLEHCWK
Chain of Adenosine receptor A2a (P29274 whole entry): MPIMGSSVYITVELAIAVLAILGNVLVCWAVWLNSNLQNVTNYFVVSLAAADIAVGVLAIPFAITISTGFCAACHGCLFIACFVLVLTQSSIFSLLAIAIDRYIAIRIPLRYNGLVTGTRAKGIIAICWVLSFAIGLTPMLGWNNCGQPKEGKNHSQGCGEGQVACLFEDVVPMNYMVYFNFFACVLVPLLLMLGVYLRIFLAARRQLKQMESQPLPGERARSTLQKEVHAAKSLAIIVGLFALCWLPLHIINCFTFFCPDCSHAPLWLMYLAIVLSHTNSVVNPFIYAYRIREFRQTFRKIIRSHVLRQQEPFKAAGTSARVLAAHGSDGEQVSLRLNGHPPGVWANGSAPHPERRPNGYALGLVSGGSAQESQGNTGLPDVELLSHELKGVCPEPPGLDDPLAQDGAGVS
Chain of Histamine H1 receptor (P35367 whole entry): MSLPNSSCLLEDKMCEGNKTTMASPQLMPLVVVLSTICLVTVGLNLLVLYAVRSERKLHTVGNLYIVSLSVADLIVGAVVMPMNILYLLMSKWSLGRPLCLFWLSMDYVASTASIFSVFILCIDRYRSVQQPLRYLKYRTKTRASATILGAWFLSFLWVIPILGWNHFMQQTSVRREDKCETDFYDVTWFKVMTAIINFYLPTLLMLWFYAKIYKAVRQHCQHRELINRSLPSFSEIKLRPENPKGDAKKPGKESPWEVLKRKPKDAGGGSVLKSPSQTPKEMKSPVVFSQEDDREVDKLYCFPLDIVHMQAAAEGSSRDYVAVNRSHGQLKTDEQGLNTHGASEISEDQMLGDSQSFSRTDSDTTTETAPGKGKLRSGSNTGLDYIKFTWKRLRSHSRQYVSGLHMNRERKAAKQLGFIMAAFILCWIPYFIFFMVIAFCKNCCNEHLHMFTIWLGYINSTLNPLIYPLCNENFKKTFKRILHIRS
Chain of 3',5'-cyclic-AMP phosphodiesterase 4D (Q08499 whole entry): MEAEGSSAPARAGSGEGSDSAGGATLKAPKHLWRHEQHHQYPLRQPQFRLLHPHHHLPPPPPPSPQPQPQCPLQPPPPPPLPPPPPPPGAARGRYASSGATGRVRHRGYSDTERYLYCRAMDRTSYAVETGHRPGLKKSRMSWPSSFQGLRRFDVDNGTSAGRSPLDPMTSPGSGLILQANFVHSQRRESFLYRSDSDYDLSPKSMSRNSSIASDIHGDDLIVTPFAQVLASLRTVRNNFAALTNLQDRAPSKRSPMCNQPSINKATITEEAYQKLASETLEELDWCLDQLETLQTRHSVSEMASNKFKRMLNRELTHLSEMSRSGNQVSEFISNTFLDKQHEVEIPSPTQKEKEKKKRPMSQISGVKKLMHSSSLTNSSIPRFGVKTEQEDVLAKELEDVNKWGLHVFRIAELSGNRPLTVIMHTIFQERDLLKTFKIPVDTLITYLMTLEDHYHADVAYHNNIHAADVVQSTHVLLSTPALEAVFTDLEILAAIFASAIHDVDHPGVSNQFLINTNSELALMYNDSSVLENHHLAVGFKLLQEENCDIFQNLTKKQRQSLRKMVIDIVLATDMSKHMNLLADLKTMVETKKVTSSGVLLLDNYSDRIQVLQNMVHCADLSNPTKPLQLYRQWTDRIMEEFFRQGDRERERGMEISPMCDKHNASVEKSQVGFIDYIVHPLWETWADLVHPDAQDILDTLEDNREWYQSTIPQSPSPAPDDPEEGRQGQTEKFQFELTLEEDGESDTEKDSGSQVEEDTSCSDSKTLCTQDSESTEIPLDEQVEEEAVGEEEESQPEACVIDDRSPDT
Chain of Delta-type opioid receptor (P41143 whole entry): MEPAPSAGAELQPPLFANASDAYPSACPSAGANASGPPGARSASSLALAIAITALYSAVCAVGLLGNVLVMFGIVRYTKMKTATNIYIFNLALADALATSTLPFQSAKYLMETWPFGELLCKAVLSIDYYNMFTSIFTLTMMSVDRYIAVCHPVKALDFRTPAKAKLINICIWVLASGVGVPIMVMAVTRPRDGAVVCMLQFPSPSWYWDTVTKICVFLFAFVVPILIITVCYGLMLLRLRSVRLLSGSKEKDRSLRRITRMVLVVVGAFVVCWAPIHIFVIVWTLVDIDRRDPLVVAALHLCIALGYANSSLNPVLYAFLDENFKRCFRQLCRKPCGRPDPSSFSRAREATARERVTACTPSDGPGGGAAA

Row | Structure (SMILES) | AC50 [1] | AC50 [2] | AC50 [3] | AC50 [4] | AC50 [5] | AC50 [6] | AC50 [7] | AC50 [8] | AC50 [9] | AC50 [10] | AC50 [11] | AC50 [12] | AC50 [13]
1 | COc1ccccc1N1CCN(CCCNc2cc(=O)n(C)c(=O)n2C)CC1 | > 30 µM | > 30 µM | > 30 µM | > 30 µM | > 30 µM | > 30 µM | > 30 µM | 9.5 µM | > 30 µM | 4.3 µM | > 10 µM | – | –
2 | CC(C)Cn1cnc2c(N)nc3ccccc3c21 [IMIQUIMOD] | > 30 µM | > 30 µM | > 10 µM | > 10 µM | 19.5 µM | > 10 µM | > 10 µM | > 30 µM | > 30 µM | – | 4.03 µM | > 10 µM | –
3 | CN1C(=O)OC(C)(C)C1=O [TRIMETHADIONE] | > 10 µM | > 30 µM | > 10 µM | > 10 µM | > 10 µM | > 10 µM | > 10 µM | > 30 µM | > 30 µM | – | > 30 µM | > 10 µM | –
4 | COC(=O)C1=C(C)NC(C)=C(C(=O)OC(C)(C)CN(C)CCC(c2ccccc2)c2ccccc2)C1c1cccc([N+](=O)[O-])c1 (stereo not given) [LERCANIDIPINE] | > 30 µM | > 30 µM | – | > 30 µM | > 30 µM | > 30 µM | > 30 µM | 25 µM | > 30 µM | 6.4 µM | > 30 µM | > 30 µM | > 30 µM
5 | C=CCC1(CC(C)C)C(=O)NC(=O)NC1=O [BUTALBITAL] | > 10 µM | > 30 µM | – | > 10 µM | > 10 µM | > 10 µM | > 10 µM | > 30 µM | > 30 µM | > 30 µM | > 30 µM | > 10 µM | > 30 µM
6 | CC=CC(=O)N(CC)c1ccccc1C | > 10 µM | > 30 µM | > 10 µM | > 10 µM | > 10 µM | > 10 µM | > 10 µM | > 30 µM | > 30 µM | – | > 30 µM | > 10 µM | –
7 | CO/N=C(\C(=O)N[C@@H]1C(=O)N2C(C(=O)O)=C(CSc3nnnn3C)CS[C@H]12)c1csc(N)n1 [CEFMENOXIME] | > 30 µM | – | > 30 µM | > 30 µM | > 30 µM | – | – | > 30 µM | – | > 30 µM | > 30 µM | > 30 µM | –
8 | O=C(O)C[C@H](O)C[C@H](O)/C=C/c1c(C2CC2)nc2ccccc2c1-c1ccc(F)cc1 [PITAVASTATIN] | > 30 µM | > 30 µM | – | > 10 µM | > 30 µM | > 10 µM | > 10 µM | > 30 µM | > 30 µM | > 30 µM | 0.93 µM and 0.67 µM | > 10 µM | –
9 | CCCC(C)C1(CC)C(=O)NC(=O)NC1=O (stereo not given) [PENTOBARBITAL] | > 10 µM | > 30 µM | – | > 10 µM | > 10 µM | – | > 10 µM | > 30 µM | 19 µM | > 30 µM | > 30 µM | > 10 µM | > 30 µM
10 | CCOC(=O)OC(C)OC1=C(C(=O)Nc2ccccn2)N(C)S(=O)(=O)c2ccccc21 (stereo not given) [AMPIROXICAM] | > 30 µM | > 30 µM | > 30 µM | > 30 µM | > 30 µM | > 30 µM | > 30 µM | > 30 µM | > 30 µM | – | > 30 µM | > 30 µM | –
11 | CC(=O)O[C@H]1C[C@@H]2CC[C@@H]3[C@H](CC[C@@]4(C)[C@H]3C[C@H]([N+]3(C)CCCCC3)[C@@H]4OC(C)=O)[C@@]2(C)C[C@@H]1N1CCCCC1 [VECURONIUM] | > 30 µM | > 30 µM | 18 µM | > 30 µM | > 30 µM | > 30 µM | > 30 µM | > 30 µM | > 30 µM | – | > 30 µM | > 30 µM | –
